Assay [1] deals with T1, Bcl2/Nur77 complex (Homo sapiens, UniProt P10415).
T1 construct: endogenous in cells; host or cells: A2780 (human ovarian cancer) whole cell lysate
The assay is described as follows: Co-immunoprecipitation of Nur77 with Bcl-2 in the presence of PTX. Format: binding. The conditions noted are these: whole cell lysates from A2780, PTX 10 µM, 2 h at 4 °C. The procedure: (§1) Cells, harvested in cold phosphate-buffered saline, were extracted for 30 min at 4 °C in lysis buffer (50 mM Tris-HCl, pH 7.4, 150 mM NaCl, 1% NP-40) containing 1mM DTT, protease inhibitor cocktail (Roche) and phosphatase inhibitors (50 mM NaF, 0.2 mM Na3VO4). Mitochondria isolation was performed as previously described (Ferlini et al., 2003). After centrifugation, supernatants (300 µg from total lysates and 100 µg from mitochondrial extracts) were immunoprecipitated at 4 °C overnight in lysis buffer by adding protein A/G plus-agarose beads (Santa Cruz Biotechnology) after 2 h of incubation with 2 µg of the following antibodies: anti-Bcl-2 (N19, Santa Cruz Biotechnology), anti-Bcl-2 (clone 124, Dako), anti-Bcl-2 BH3 domain (Abgent), anti-Nur77 (Imgenex), anti-β-tubulin (H235, Santa Cruz Biotechnology), anti-class III β-tubulin polyclonal antibody (Covance) and isotype-matched non-immune IgG (Sigma) as control. […]
The significant similarity between the binding sites of the two PTX target proteins resulted from molecular modeling studies prompted the authors to investigate the possibility that PTX is a peptidomimetic compound. […] In order to assess this hypothesis, recombinant histidine-tagged Nur77 was purified and the interaction with in vitro produced Bcl-2 and Bcl-2Δ labeled with ^35S-methionine was analyzed. […]

In assay [2] the test system is mitochondria freshly isolated from TC1-Bcl-2Δ cells. Briefly: Flow cytometric assessment of Δψm in freshly isolated mitochondria (Rhodamine 123). Type of assay: cell-based, human. The settings on record: PTX 10 µM, 60 min; mitochondria from TC1-Bcl-2Δ; without treatment 14%. Here is the method:
(§2) Cell culture procedures and cell lines have been elsewhere described (Ferlini et al., 2003). Mitochondria were freshly isolated and mitochondrial transmembrane potential Δψm was assessed as previously described (Ferlini et al., 1995), using Rhodamine 123 (Molecular Probes) and a Facscan flow cytometer (Becton Dickinson).
(§3) Here, they used the human ovary A2780 cancer cell line and its counterpart TC1 (Ferlini et al., 2003) with acquired PTX-resistance. […] Since the homology between the Bcl-2 and Bcl-xL is high, with the exception of the loop domain, TC1 cells were stably transfected with a construct in which the loop domain of Bcl-2 (aa 35-91) was deleted and replaced with a linker sequence of four alanine residues, as previously described by Chang et al. (Chang et al., 1997). These cells are thereafter referred to as TC1 Bcl-2Δ. Mitochondria were freshly isolated from these cells and were treated with PTX (10 µM). This concentration has a clinical relevance since it corresponds to the intracellular concentration achievable in patients. (Andre et al., 2000).
(§4) The status of mitochondrial transmembrane potential (Δψm) was then monitored using the cationic fluorochrome Rhodamine 123 and flow cytometry. Results of these experiments are depicted in Fig. 1B. […] In fact, as reported in Fig. 1B the percentage of mitochondria with full leakage of the Δψm pass from 18% to 78%. […] In TC1-Bcl-2 cells, the sensitivity to PTX treatment was restored and again the vast majority of treated mitochondria were able to open the PTPC upon PTX treatment and dissipate the Δψm (from 8% to 82%). […] Taken together, these findings indicate that PTX is able to convert Bcl-2 in a factor proficient to activate the opening of PTPC and that such activity requires the presence of Bcl-2 loop domain, since it is not longer detectable in mitochondria from TC1-Bcl-2Δ cells.

The subject of assay [3] is mitochondria freshly isolated from A2780wt cells. Described as above. Format: cell-based, human. The conditions noted are these: PTX 10 µM, 60 min, without treatment 18%. The procedure: as §2, §3, §4
Assay [4] relates to mitochondria freshly isolated from TC1 cells. Described as above. Type of assay: cell-based, human. The conditions noted are these: PTX 10 µM, 60 min; mitochondria from TC1 (undetectable Bcl-2); without treatment 16%. Here is the method:
as §2, §3, §4

Assay [5] concerns mitochondria freshly isolated from TC1-Bcl-2 cells. The description is as above. Type of assay: cell-based, human. The conditions noted are these: PTX 10 µM, 60 min; mitochondria from TC1-Bcl-2; without treatment 8%. Here is the method: as §2, §3, §4
Assay [6] relates to Bcl-2. Briefly: Western blot of Bcl-2 in mitochondrial extracts (mobility shift). The conditions noted are these: A2780wt treated 24h with PTX 1 µM. Format: cell-based, human. The procedure:
as §1
It has already been shown that Bcl-2 is phosphorylated following exposure to PTX and that phosphorylation occurs in the disordered loop of Bcl-2 (Haldar et al., 1996; Fang et al., 1998). In order to investigate if Nur77, like PTX, is able to induce Bcl-2 mobility shifts, A2780 and TC1 cell lines overexpressing Nur77 (thereafter referred to as A2780Nur77 and TC1Nur77) were established and Bcl-2 status was analysed. […]
(A western blot detects proteins with antibodies after separation by electrophoresis.)

T1 sequence (P10415 whole entry, one chain of several): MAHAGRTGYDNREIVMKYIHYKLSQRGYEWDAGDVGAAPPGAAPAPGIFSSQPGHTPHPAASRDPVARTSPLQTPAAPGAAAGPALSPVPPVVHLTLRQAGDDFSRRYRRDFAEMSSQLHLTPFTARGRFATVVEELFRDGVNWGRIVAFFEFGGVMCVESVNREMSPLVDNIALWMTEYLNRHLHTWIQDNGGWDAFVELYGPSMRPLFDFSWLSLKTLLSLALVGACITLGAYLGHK

For `CC(=O)O[C@H]1C(=O)[C@@]2(C)[C@H]([C@H](OC(=O)c3ccccc3)[C@]3(O)C[C@H](OC(=O)[C@H](O)[C@@H](NC(=O)c4ccccc4)c4ccccc4)C(C)=C1C3(C)C)[C@]1(OC(C)=O)CO[C@@H]1C[C@@H]2O` [PTX, paclitaxel], in assay [1], the “displacement of Nur77 from Bcl-2” value is given as “able to displace Nur77 from Bcl-2”. The “mitochondria with changed Δψm status” value in assay [2] came to 20%. In assay [3], the “percentage of mitochondria with full leakage of the Δψm” value turned out to be 78%. Besides, the “number of mitochondria with the leakage of Δψm” value in assay [4] is 26%. Moreover, the “mitochondria that open the PTPC and dissipate the Δψm” value in assay [5] was determined as 82%. Further, the “slow mobility band of Bcl-2” value in assay [6] is “slow mobility band was detectable”.

(Values after patent EP1932852B1, “Novel taxane related peptides and uses thereof” (Campiani, Giuseppe, priority 2006, dated 2008).)
